In US8623859B2, “Bradykinin B1 antagonists” (Evotec AG, priority 2008, dated 2014):
Where a name gives a salt, the structure may show the parent alone.

Target: T1, human B1 (Homo sapiens, UniProt P46663)
T1 construct: host or cells: CHO-K1
T1 sequence (P46663 1-353): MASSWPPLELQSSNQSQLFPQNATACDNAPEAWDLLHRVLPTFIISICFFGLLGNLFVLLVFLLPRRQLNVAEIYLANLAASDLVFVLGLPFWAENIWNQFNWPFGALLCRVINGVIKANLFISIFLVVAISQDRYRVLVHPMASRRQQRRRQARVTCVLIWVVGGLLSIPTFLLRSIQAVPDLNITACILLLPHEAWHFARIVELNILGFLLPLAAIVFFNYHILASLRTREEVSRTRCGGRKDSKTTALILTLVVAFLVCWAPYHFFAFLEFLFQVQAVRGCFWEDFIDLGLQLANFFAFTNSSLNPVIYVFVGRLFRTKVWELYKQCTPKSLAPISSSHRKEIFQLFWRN
Assay: Calcium flux assay for Bradykinin B1 antagonist, CHO-K1 cell line expressing human B1
Assay type: cell-based
Conditions: CHO-K1 cells expressing human B1, agonist Lys-(Des-Arg)-Bradykinin, read-out: Potency (IC50 value against human B1)
How it was run: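 CHO-K1 cells expressing human B1, loaded with 5 μM Fluo-4AM (2 h, 37° C) in HEPES buffer pH 7.4 with probenecid and 0.1% BSA, were preincubated 30 min at 25° C with compound (8 concentrations, triplicate, 1% DMSO) before B1 agonist addition. Ca2+ fluorescence monitored at 538 nm; background-normalized integrated values plotted against log antagonist concentration.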

| Structure (SMILES) | IC50 |
| --- | --- |
| CN(CCc1ccc(C2=NCCN2)cc1)C(=O)c1coc(CN(C)S(=O)(=O)c2ccc(Cl)cc2Cl)c1 [Ex 22, 5-({[(2,4-dichlorophenyl)sulfonyl](methyl)amino}methyl)-N-{2-[4-(4,5-dihydro-1H-imidazol-2-yl)phenyl]ethyl}-N-methylfuran-3-carboxamide] | 100 to 1000 nM |
| COc1cc(C)c(S(=O)(=O)N(C)Cc2cc(C(=O)NCCc3ccc(CN4CC[C@H](N(C)C)C4)cc3)co2)c(C)c1 [Ex 92, N-[2-(4-{[(3S)-3-(Dimethylamino)pyrrolidin-1-yl]methyl}phenyl)ethyl]-5-({[(4-methoxy-2,6-dimethylphenyl)sulfonyl](methyl)amino}methyl)furan-3-carboxamide, trifluoroacetate] | 100 to 1000 nM |
| CCN(Cc1cc(C(=O)N(C)Cc2ccc(CN3CCCC3)cc2)co1)S(=O)(=O)c1c(Cl)cccc1Cl [Ex 121, 5-({[(2,6-Dichlorophenyl)sulfonyl](ethyl)amino}methyl)-N-methyl-N-[4-(pyrrolidin-1-ylmethyl)benzyl]furan-3-carboxamide trifluoroacetate] | 100 to 1000 nM |
| CN(CCc1ccc(C2=NCCN2)cc1)C(=O)c1coc(CN(C2CC2)S(=O)(=O)c2c(Cl)cc(Br)cc2Cl)c1 [Ex 124, 5-({[(4-Bromo-2,6-dichlorophenyl)sulfonyl](cyclopropyl)amino}methyl)-N-{2-[4-(4,5-dihydro-1H-imidazol-2-yl)phenyl]ethyl}-N-methylfuran-3-carboxamide trifluoroacetate] | < 10 nM |
| COc1cc(C)c(S(=O)(=O)N(Cc2cc(C(=O)N(C)Cc3ccc(CN4CCCC(O)C4)cc3)co2)C2CC2)c(C)c1 (stereo not shown) [Ex 142, 5-({Cyclopropyl[(4-methoxy-2,6-dimethylphenyl)sulfonyl]amino}methyl)-N-{4-[(3-hydroxypiperidin-1-yl)methyl]benzyl}-N-methylfuran-3-carboxamide] | < 10 nM |
| COc1cc(C)c(S(=O)(=O)N(C)Cc2cc(C(=O)N(C)Cc3cc(CN4CCCC4)ccc3F)co2)c(C)c1 [Ex 156, N-[2-Fluoro-5-(pyrrolidin-1-ylmethyl)benzyl]-5-({[(4-methoxy-2,6-dimethylphenyl)sulfonyl](methyl)amino}methyl)-N-methylfuran-3-carboxamide trifluoroacetate] | 10 to 100 nM |
| COc1cc(C)c(S(=O)(=O)N(C)Cc2cc(C(=O)N(C)Cc3ccc(-c4nccn4C)cc3)co2)c(C)c1 [Ex 43, 5-({[(4-methoxy-2,6-dimethylphenyl)sulfonyl](methyl)amino}methyl)-N-methyl-N-[4-(1-methyl-1H-imidazol-2-yl)benzyl]furan-3-carboxamide] | 100 to 1000 nM |
| COc1cc(C)c(S(=O)(=O)N(C)Cc2nc(C(=O)NCCc3ccc(C4=NCCN4)cc3)co2)c(C)c1 [Ex 67, N-{2-[4-(4,5-dihydro-1H-imidazol-2-yl)phenyl]ethyl}-2-({[(4-methoxy-2,6-dimethylphenyl)sulfonyl](methyl)amino}methyl)-1,3-oxazole-4-carboxamide] | < 10 nM |
| COc1cc(C)c(S(=O)(=O)N(Cc2cc(C(=O)N(C)Cc3ccc(CN4CC(OC)C4)cc3)co2)C2CC2)c(C)c1 [Ex 149, 5-({Cyclopropyl[(4-methoxy-2,6-dimethylphenyl)sulfonyl]amino}methyl)-N-{4-[(3-methoxyazetidin-1-yl)methyl]benzyl}-N-methylfuran-3-carboxamide] | 100 to 1000 nM |
| COc1cc(C)c(S(=O)(=O)N(C)Cc2cc(C(=O)NCCc3ccc(C4=NCCN4)cc3)co2)c(CO)c1 [Ex 86, N-{2-[4-(4,5-Dihydro-1H-imidazol-2-yl)phenyl]ethyl}-5-{[{[2-(hydroxymethyl)-4-methoxy-6-methylphenyl]sulfonyl}(methyl)amino]methyl}furan-3-carboxamide trifluoroacetate] | 100 to 1000 nM |
| CCN1CCN(CCNC(=O)c2coc(CN(C3CC3)S(=O)(=O)c3c(C)cc(OC)cc3C)c2)CC1 [Ex 113, 5-({Cyclopropyl[(4-methoxy-2,6-dimethylphenyl)sulfonyl]amino}methyl)-N-[2-(4-ethylpiperazin-1-yl)ethyl]furan-3-carboxamide trifluoroacetate] | 100 to 1000 nM |
| COc1cc(C)c(S(=O)(=O)N(Cc2nc(C(=O)N(C)Cc3csc(CN4CCCC4)n3)co2)C2CC2)c(C)c1 [Ex 160, 2-({Cyclopropyl[(4-methoxy-2,6-dimethylphenyl)sulfonyl]amino}methyl)-N-methyl-N-{[2-(pyrrolidin-1-ylmethyl)-1,3-thiazol-4-yl]methyl}-1,3-oxazole-4-carboxamide] | 10 to 100 nM |
| COc1cc(C)c(S(=O)(=O)N(C)Cc2noc(C(=O)NCCc3ccc(C4=NCCN4)cc3)n2)c(C)c1 [Ex 64, N-{2-[4-(4,5-dihydro-1H-imidazol-2-yl)phenyl]ethyl}-3-({[(4-methoxy-2,6-dimethylphenyl)sulfonyl](methyl)amino}methyl)-1,2,4-oxadiazole-5-carboxamide] | < 10 nM |
| Cc1cc(S(=O)(=O)N(C)Cc2cc(C(=O)N(C)CCc3ccc(C4=NCCN4)cc3)co2)c(C)cc1Cl [Ex 28, 5-({[(4-chloro-2,5-dimethylphenyl)sulfonyl](methyl)amino}methyl)-N-{2-[4-(4,5-dihydro-1H-imidazol-2-yl)phenyl]ethyl}-N-methylfuran-3-carboxamide] | 100 to 1000 nM |

Next, values leading:

| IC50 | Structure (SMILES) |
| --- | --- |
| 10 to 100 nM | COc1cc(C)c(S(=O)(=O)N(C)Cc2nnc(C(=O)N3CCC(CCN4CCCC4)CC3)o2)c(C)c1 [Ex 280, 4-Methoxy-N,2,6-trimethyl-N-[(5-{[4-(2-pyrrolidin-1-ylethyl)piperidin-1-yl]carbonyl}-1,3,4-oxadiazol-2-yl)methyl]benzenesulfonamide] |
| 100 to 1000 nM | COc1cc(C)c(S(=O)(=O)N(C)Cc2nnc(C(=O)N3CCN(CC4CCCN(C)C4)CC3)o2)c(C)c1 (stereo not shown) [Ex 278, 4-Methoxy-N,2,6-trimethyl-N-{[5-({4-[(1-methylpiperidin-3-yl)methyl]piperazin-1-yl}carbonyl)-1,3,4-oxadiazol-2-yl]methyl}benzenesulfonamide] |
| 10 to 100 nM | COc1cc(C)c(S(=O)(=O)N(Cc2noc(C(=O)N3CCN(CCCN(C)C)CC3)n2)C2CC2)c(C)c1 [Ex 316, N-Cyclopropyl-N-{[5-([4-[3-(dimethylamino)propyl]piperazin-1-yl]carbonyl)-1,2,4-oxadiazol-3-yl]methyl}-4-methoxy-2,6-dimethylbenzenesulfonamide] |
| < 10 nM | COc1cc(C)c(S(=O)(=O)N(Cc2nc(C(=O)N(C)Cc3ccc(CN4CCC(O)C4)cc3)co2)C2CC2)c(C)c1 (stereo not shown) [Ex 176, 2-({Cyclopropyl[(4-methoxy-2,6-dimethylphenyl)sulfonyl]amino}methyl)-N-{4-[(3-hydroxypyrrolidin-1-yl)methyl]benzyl}-N-methyl-1,3-oxazole-4-carboxamide] |
| 100 to 1000 nM | [2H]C([2H])([2H])N(Cc1nnc(C(=O)N2CCN(CC3CCN(C)CC3)CC2)o1)S(=O)(=O)c1c(C)cc(OC)cc1C [Ex 291, 4-Methoxy-2,6-dimethyl-N-(^2H3)methyl-N-{[5-({4-[(1-methylpiperidin-4-yl)methyl]piperazin-1-yl}carbonyl)-1,3,4-oxadiazol-2-yl]methyl}benzenesulfonamide trifluoroacetate] |
| 10 to 100 nM | COc1cc(C)c(S(=O)(=O)N(C)Cc2nnc(C(=O)N(C)Cc3ccc(CN4CCCC4)cc3)o2)c(C)c1 [Ex 268, 5-({[(4-Methoxy-2,6-dimethylphenyl)sulfonyl](methyl)amino}methyl)-N-methyl-N-[4-(pyrrolidin-1-ylmethyl)benzyl]-1,3,4-oxadiazole-2-carboxamide trifluoroacetate] |
| < 10 nM | COc1cc(C)c(S(=O)(=O)N(Cc2nc(C(=O)N(C)Cc3ccc(CN4CCCC4)nc3)co2)C2CC2)c(C)c1 [Ex 203, 2-({Cyclopropyl[(4-methoxy-2,6-dimethylphenyl)sulfonyl]amino}methyl)-N-methyl-N-{[6-(pyrrolidin-1-ylmethyl)pyridin-3-yl]methyl}-1,3-oxazole-4-carboxamide] |
| < 10 nM | COc1cc(C)c(S(=O)(=O)N(Cc2nc(C(=O)N(C)C3CCCC(N4CCN(C)CC4)C3)co2)C2CC2)c(C)c1 (stereo not shown) [Ex 244, 2-({Cyclopropyl[(4-methoxy-2,6-dimethylphenyl)sulfonyl]amino}methyl)-N-methyl-N-[3-(4-methylpiperazin-1-yl)cyclohexyl]-1,3-oxazole-4-carboxamide] |
| 10 to 100 nM | COc1cc(C)c(S(=O)(=O)N(C)Cc2nc(C(=O)N(C)Cc3ccc(CN4CC(O)C4)cc3)co2)c(C)c1 [Ex 172, N-{4-[(3-Hydroxyazetidin-1-yl)methyl]benzyl}-2-({[(4-methoxy-2,6-dimethylphenyl)sulfonyl](methyl)amino}methyl)-N-methyl-1,3-oxazole-4-carboxamide] |
| 100 to 1000 nM | COc1cc(C)c(S(=O)(=O)N(Cc2nc(C(=O)N3CCC(N(C)Cc4ccc(OC)nc4)C3)co2)C2CC2)c(C)c1 (stereo not shown) [Ex 212, N-Cyclopropyl-4-methoxy-N-({4-[(3-{[(6-methoxypyridin-3-yl)methyl](methyl)amino}pyrrolidin-1-yl)carbonyl]-1,3-oxazol-2-yl}methyl)-2,6-dimethylbenzenesulfonamide trifluoroacetate] |
| 10 to 100 nM | COc1cc(C)c(S(=O)(=O)N(C)Cc2nc(C(=O)N(C)Cc3ccc(CN4CCC(N(C)C)C4)cc3)co2)c(C)c1 (stereo not shown) [Ex 177, N-(4-{[3-(Dimethylamino)pyrrolidin-1-yl]methyl}benzyl)-2-({[(4-methoxy-2,6-dimethylphenyl)sulfonyl](methyl)amino}methyl)-N-methyl-1,3-oxazole-4-carboxamide] |
